Experimental data published in US11312727B1, “Macrocyclic flu endonuclease inhibitors” (Janssen BioPharma, Inc., priority 2018, dated 2022).

How the values were obtained:
[1] = system: Influenza strain A549 A/WSN/33 (H1N1); assay: microbe, parasite or virus in culture; format: cell-based; conditions: Influenza A virus, A549, 20 h, A549 cells, influenza A/WSN/33 (H1N1), 20 hours incubation; read-out: A549_A(H1N1) EC50
in vitro = conditions: human, CC50, uninfected A549 cells, CellTiter-Glo

Row | Structure (SMILES) | EC50 [1] [µM] | CC50 (in vitro) [µM]
1 | O=C1c2c(O)c(=O)ccn2N2CN1C[C@H]1C[C@@H]1COc1cc(F)c(F)c3c1[C@@H]2c1ccccc1SC3 (single isomer, unassigned) [Compound 127AA, (1a*S,11b*S,20a*S)-22,23-difluoro-17-hydroxy-1a,2,6,11b,20,20a-hexahydro-1H-5,4-(epiprop[1]en[1]yl[3]ylidene)-12,19-methanobenzo[6,7]thiepino[4,5-c]cyclopropa[k]pyrido[1,2-f][1]oxa[5,6,9]triazacyclotridecine-16,18-dione] | 0.0015 | > 0.2
2 | O=C1c2c(O)c(=O)ccn2N2CN1C[C@H]1C[C@@H]1COc1cc(F)c(F)c3c1[C@H]2c1ccccc1SC3 (single isomer, unassigned) [Compound 127BA, (1a*S,11b*R,20a*S)-22,23-difluoro-17-hydroxy-1a,2,6,11b,20,20a-hexahydro-1H-5,4-(epiprop[1]en[1]yl[3]ylidene)-12,19-methanobenzo[6,7]thiepino[4,5-c]cyclopropa[k]pyrido[1,2-f][1]oxa[5,6,9]triazacyclotridecine-16,18-dione] | 0.0014 | > 0.2
3 | CC(C)[C@@H]1/C=C/COc2c(ccc(F)c2F)[C@@H](c2ccccc2)N2CN1C(=O)c1c(O)c(=O)ccn12 (single isomer, unassigned) [Compound 128AA, (9*R,18*R,*E)-3,4-difluoro-12-hydroxy-9-isopropyl-18-phenyl-6,9-dihydro-18H-10,17-methanobenzo[b]pyrido[1,2-f][1]oxa[5,6,9]triazacyclotridecine-11,13-dione] | > 0.1 | > 0.2
4 | CC(C)[C@H]1/C=C/COc2c(ccc(F)c2F)[C@@H](c2ccccc2)N2CN1C(=O)c1c(O)c(=O)ccn12 (single isomer, unassigned) [Compound 128AB, (9*S,18*R,*E)-3,4-difluoro-12-hydroxy-9-isopropyl-18-phenyl-6,9-dihydro-18H-10,17-methanobenzo[b]pyrido[1,2-f][1]oxa[5,6,9]triazacyclotridecine-11,13-dione] | 0.065 | > 0.2
5 | CC(C)[C@@H]1/C=C/COc2c(ccc(F)c2F)[C@H](c2ccccc2)N2CN1C(=O)c1c(O)c(=O)ccn12 (single isomer, unassigned) [Compound 128BA, (9*R,18*S,*E)-3,4-difluoro-12-hydroxy-9-isopropyl-18-phenyl-6,9-dihydro-18H-10,17-methanobenzo[b]pyrido[1,2-f][1]oxa[5,6,9]triazacyclotridecine-11,13-dione] | > 0.1 | > 0.2
6 | CC(C)[C@H]1/C=C/COc2c(ccc(F)c2F)[C@H](c2ccccc2)N2CN1C(=O)c1c(O)c(=O)ccn12 (single isomer, unassigned) [Compound 128BB] | 0.0039 | > 0.2
7 | O=C1c2c(O)c(=O)ccn2N2CN1C/C=C\COc1c(cccc1C(F)(F)F)[C@H]2c1ccccc1 (single isomer, unassigned) [Compound 130A, (18*R,Z)-12-hydroxy-18-phenyl-4-(trifluoromethyl)-6,9-dihydro-18H-10,17-methanobenzo[b]pyrido[1,2-f][1]oxa[5,6,9]triazacyclotridecine-11,13-dione] | 0.0048 | > 0.2
8 | O=C1c2c(O)c(=O)ccn2N2CN1C/C=C\COc1c(cccc1C(F)(F)F)[C@@H]2c1ccccc1 (single isomer, unassigned) [Compound 130B, (18*S,Z)-12-hydroxy-18-phenyl-4-(trifluoromethyl)-6,9-dihydro-18H-10,17-methanobenzo[b]pyrido[1,2-f][1]oxa[5,6,9]triazacyclotridecine-11,13-dione] | > 0.1 | > 0.2
9 | O=C1c2c(O)c(=O)ccn2N2CN1CC[C@@H]1C[C@H]1COc1cccc3c1[C@@H]2c1ccccc1SC3 (single isomer, unassigned) [Compound 131AA, (1*R,13*S,15*R)-7-hydroxy-17-oxa-24-thia-2,3,10-triazaheptacyclo[16.12.1.12,10.03,8.013,15.022,31.025,30]dotriaconta-4,18,20,22(31),25(30),26,28-heptaene-6,9-dione] | 0.0047 | > 0.2
10 | O=C1c2c(O)c(=O)ccn2N2CN1CCC1C[C@@H]1COc1cccc3c1[C@@H]2c1ccccc1SC3 (single isomer, unassigned) [Compound 131AB, (1*R,13*R,15*S)-7-hydroxy-17-oxa-24-thia-2,3,10-triazaheptacyclo[16.12.1.12,10.03,8.013,15.022,31.025,30]dotriaconta-4,18,20,22(31),25(30),26,28-heptaene-6,9-dione] | 0.017 | > 0.2
11 | O=C1c2c(O)c(=O)ccn2N2CN1CC[C@@H]1C[C@H]1COc1cccc3c1[C@H]2c1ccccc1SC3 (single isomer, unassigned) [Compound 131BA, (1*S,13*S,15*R)-7-hydroxy-17-oxa-24-thia-2,3,10-triazaheptacyclo[16.12.1.12,10.03,8.013,15.022,31.025,30]dotriaconta-4,18,20,22(31),25(30),26,28-heptaene-6,9-dione] | > 0.1 | > 0.2
12 | O=C1c2c(O)c(=O)ccn2N2CN1CC[C@H]1C[C@@H]1COc1cccc3c1[C@H]2c1ccccc1SC3 (single isomer, unassigned) [Compound 131BB, (1*S,13*R,15*S)-7-hydroxy-17-oxa-24-thia-2,3,10-triazaheptacyclo[16.12.1.12,10.03,8.013,15.022,31.025,30]dotriaconta-4,18,20,22(31),25(30),26,28-heptaene-6,9-dione] | > 0.1 | > 0.2
13 | CC(C)[C@@H]1/C=C/COc2ccccc2[C@@H](c2ccccc2)N2CN1C(=O)c1c(O)c(=O)ccn12 (single isomer, unassigned) [Compound 132A, (9*R,18*R,*E)-12-hydroxy-9-isopropyl-18-phenyl-9,10-dihydro-6H,18H-10,17-methanobenzo[b]pyrido[1,2-f][1]oxa[5,6]diazacyclotridecine-11,13-dione] | > 0.1 | > 0.2
14 | CC(C)[C@H]1/C=C/COc2ccccc2[C@H](c2ccccc2)N2CN1C(=O)c1c(O)c(=O)ccn12 (single isomer, unassigned) [Compound 132B, (9*S,18*S,*E)-12-hydroxy-9-isopropyl-18-phenyl-6,9-dihydro-18H-10,17-methanobenzo[b]pyrido[1,2-f][1]oxa[5,6,9]triazacyclotridecine-11,13-dione] | 0.0093 | > 0.2
15 | Cc1c(F)ccc2c1OC/C=C\CN1CN([C@@H]2c2ccccc2)n2ccc(=O)c(O)c2C1=O (single isomer, unassigned) [Compound 133A, (18*R,Z)-3-fluoro-12-hydroxy-4-methyl-18-phenyl-6,9-dihydro-18H-10,17-methanobenzo[b]pyrido[1,2-f][1]oxa[5,6,9]triazacyclotridecine-11,13-dione] | 0.0041 | > 0.2
16 | Cc1c(F)ccc2c1OC/C=C\CN1CN([C@H]2c2ccccc2)n2ccc(=O)c(O)c2C1=O (single isomer, unassigned) [Compound 133B, (18*S,Z)-3-fluoro-12-hydroxy-4-methyl-18-phenyl-6,9-dihydro-18H-10,17-methanobenzo[b]pyrido[1,2-f][1]oxa[5,6,9]triazacyclotridecine-11,13-dione] | > 0.1 | > 0.2
17 | O=C1c2c(O)c(=O)ccn2N2CN1C/C=C\COc1c(OC(F)(F)F)cccc1[C@H]2c1ccccc1 (single isomer, unassigned) [Compound 134A, (18*R,Z)-12-hydroxy-18-phenyl-4-(trifluoromethoxy)-6,9-dihydro-18H-10,17-methanobenzo[b]pyrido[1,2-f][1]oxa[5,6,9]triazacyclotridecine-11,13-dione] | 0.0693 | > 0.2
18 | O=C1c2c(O)c(=O)ccn2N2CN1C/C=C\COc1c(OC(F)(F)F)cccc1[C@@H]2c1ccccc1 (single isomer, unassigned) [Compound 134B, (18*S,Z)-12-hydroxy-18-phenyl-4-(trifluoromethoxy)-6,9-dihydro-18H-10,17-methanobenzo[b]pyrido[1,2-f][1]oxa[5,6,9]triazacyclotridecine-11,13-dione] | > 0.1 | > 0.2
19 | Cc1ccc2c(c1F)OC/C=C\CN1CN([C@@H]2c2ccccc2)n2ccc(=O)c(O)c2C1=O (single isomer, unassigned) [Compound 135A, (18*R,Z)-4-fluoro-12-hydroxy-3-methyl-18-phenyl-6,9-dihydro-18H-10,17-methanobenzo[b]pyrido[1,2-f][1]oxa[5,6,9]triazacyclotridecine-11,13-dione] | 0.0073 | > 0.2
20 | Cc1ccc2c(c1F)OC/C=C\CN1CN([C@H]2c2ccccc2)n2ccc(=O)c(O)c2C1=O (single isomer, unassigned) [Compound 135B, (18*S,Z)-4-fluoro-12-hydroxy-3-methyl-18-phenyl-6,9-dihydro-18H-10,17-methanobenzo[b]pyrido[1,2-f][1]oxa[5,6,9]triazacyclotridecine-11,13-dione] | > 0.1 | > 0.2
21 | O=C1c2c(O)c(=O)ccn2N2CN1C/C=C\COc1c(ccc(F)c1F)[C@H]2c1ccccc1C1CC1 (single isomer, unassigned) [Compound 136A, (18*R,*Z)-18-(2-cyclopropylphenyl)-3,4-difluoro-12-hydroxy-6,9-dihydro-18H-10,17-methanobenzo[b]pyrido[1,2-f][1]oxa[5,6,9]triazacyclotridecine-11,13-dione] | 0.0063 | > 0.2
22 | O=C1c2c(O)c(=O)ccn2N2CN1C/C=C\COc1c(ccc(F)c1F)[C@@H]2c1ccccc1C1CC1 (single isomer, unassigned) [Compound 136B, (18*S,*Z)-18-(2-cyclopropylphenyl)-3,4-difluoro-12-hydroxy-6,9-dihydro-18H-10,17-methanobenzo[b]pyrido[1,2-f][1]oxa[5,6,9]triazacyclotridecine-11,13-dione] | > 0.1 | > 0.2
